Experiment [1] deals with T1, ERRα (Homo sapiens, UniProt P11474).
T1 sequence (P11474 1-423): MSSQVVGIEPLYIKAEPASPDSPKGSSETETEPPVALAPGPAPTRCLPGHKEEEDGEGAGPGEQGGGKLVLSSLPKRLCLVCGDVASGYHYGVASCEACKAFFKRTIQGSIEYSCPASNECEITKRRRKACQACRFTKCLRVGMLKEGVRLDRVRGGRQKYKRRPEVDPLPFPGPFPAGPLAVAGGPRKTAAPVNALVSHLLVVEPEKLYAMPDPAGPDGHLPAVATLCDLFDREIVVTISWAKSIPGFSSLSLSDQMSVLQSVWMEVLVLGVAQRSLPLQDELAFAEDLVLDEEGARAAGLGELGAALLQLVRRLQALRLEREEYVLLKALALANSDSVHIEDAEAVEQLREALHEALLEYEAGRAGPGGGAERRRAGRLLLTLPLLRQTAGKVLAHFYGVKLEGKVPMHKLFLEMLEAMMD
As to conditions: Yang et al. (1999); Tremblay et al. (2001a); cited from earlier work.

For the next experiment, the system named is ERRα mRNA. Briefly: ERRα mRNA levels in C5.18 cultures by semi-quantitative RT-PCR, normalised against L32. The class given is cell-based, rat. As to conditions: C5.18 cultures without FBS, 10^−9M E2 versus 0.01% ethanol vehicle, day 2; FIG. 8 Panel B. As for the experimental part: Semi-quantitative RT-PCR was carried out as described in Bonnelye et al. (2001), over the proliferation/differentiation time course of C5.18 cultures treated with Dex. Days 3 and 6 were within the proliferation phase and days 11, 15 and 21 were within the differentiation stage. ERRα expression was normalised against that of the ribosomal probe L32. For comparison, mRNA levels for three chondroblast markers, type II collagen, aggrecan and link protein, were also assessed, normalised against L32.
C5.18 cells were grown in medium with (+) and without (−) fetal bovine serum (FBS). ERRα mRNA levels were determined by semi-quantitative RT-PCR and normalised against ribosomal probe L32.
Similar C5.18 cultures were grown without FBS but in the presence of estrogen (10^−9M E2) or vehicle (0.01% ethanol) (VEH) and mRNA levels were determined as above.

For experiment [2], the target named is T1, ERRα. As to conditions: cited from earlier work.

`ClC1=C(Cl)C2(Cl)C3C(Cl)C(Cl)CC3C1(Cl)C2(Cl)Cl` (stereo not drawn) [chlordane]: the ERRα antagonist activity result on ERRα [1] is “antagonise ERRα activity”. On to estrogen, for which the “ERRα mRNA levels” value with ERRα mRNA is “significantly increased”. The “binding to ERRα” value at ERRα [2] is recorded as “does not bind”.

Values taken from patent US20070054859A1, “Estrogen receptor-related receptor alpha (ERRalpha) and cartilage formation” (priority 2001, published 2007).
